Measurements published in US11129910B2, “Specific conjugation linkers, specific immunoconjugates thereof, methods of making and uses such conjugates thereof” (priority 2016, dated 2021).

Tests used:
[1] = system: NCI-N87, a human gastric carcinoma cell line; test: In vitro cytotoxicity (MTT) assay; assay type: cell-based; details: NCI-N87 cells, 120 hours incubation, read-out: N87 cell (Ag+) IC50
Protocol: The cell line used in the cytotoxicity assays was NCI-N87, a human gastric carcinoma cell line. The cells were grown in RPMI-1640 with 10% FBS. To run the assay, the cells (180 μl, 6000 cells) were added to each well in a 96-well plate and incubated for 24 hours at 37° C. with 5% CO2. Next, the cells were treated with test compounds (20 μl) at various concentrations in appropriate cell culture medium (total volume, 0.2 mL). The control wells contain cells and the medium but lack the test compounds. The plates were incubated for 120 hours at 37° C. with 5% CO2. MTT (5 mg/ml) was then added to the wells (20 μl) and the plates were incubated for 1.5 hr at 37° C. The medium was carefully removed and DMSO (180 μl) was added afterward. After it was shaken for 15 min, the absorbance was measured at 490 nm and 570 nm with a reference filter of 620 nm. The inhibition % was calculated according to the following equation: inhibition %=[1-(assay-blank)/(control-blank)]×100.

[2] = system: human gastric carcinoma N-87 cell line tumor xenograft; test: Antitumor activity in vivo, tumor xenograft model; design: species or system BALB/c Nude mice
Protocol: The in vivo efficacy of conjugates 196a, 201, 206, 354, 358, 370, 377, 385, and 407 along with T-DM1 were evaluated in a human gastric carcinoma N-87 cell line tumorxenograft models. Five-week-old female BALB/c Nude mice ([…]) were inoculated subcutaneously in the area under the right shoulder with N-87 carcinoma cells (5×10^6 cells/mouse) in 0.1 mL of serum-free medium. The tumors were grown for 8 days to an average size of 130 mm^3. The animals were then randomly divided into […] (6 animals per group). The first group of mice served as the control group and was treated with the phosphate-buffered saline vehicle. The remaining […] were treated with conjugates 196a, 201, 206, 354, 358, 370, 377, 385, 407 and T-DM1 respectively at dose of 6 mg/Kg administered intravenously. Three dimensions of the tumor were measured every 4 days and the tumor volumes were calculated using the formula tumor volume=1/2 (length×width×height). The weight of the animals was also measured at the same time. A mouse was sacrificed when any one of the following criteria was met: (1) loss of body weight of more than 20% from pretreatment weight, (2) tumor volume larger than 1500 mm^3, (3) too sick to reach food and water, or (4) skin necrosis. A mouse was considered to be tumor-free if no tumor was palpable.

T-DM1 was tested. Which IC50 [1] did it give?
The IC50 was 0.07 nM.

And the “duration of tumor growth inhibition” value ([2]; 6 mg/Kg intravenously)?
Its value is 38 days.

What about the “elimination / eradication of the tumors” value ([2]; 6 mg/Kg, i.v., one injection) of the same substance?
Its value is “not able to eliminate the tumors”.
